Assay [1] relates to E. faecalis ATCC 29212. In words: microbe, parasite or virus in culture. The note with it: Enterococcus faecalis, ATCC29212, 24 h, read-out: MIC, E. faecalis ATCC29212.
Assay [2] concerns vancomycin‐resistant E. faecium clinical isolates with reduced susceptibility to daptomycin (n = 26). In words: microbe, parasite or virus in culture. The note with it: Enterococcus faecium; for MIC: 24 h.
Assay [3] concerns E. faecalis ATCC 29212. The note with it: reference strain in Table S5; broth microdilution, MHB II, 37 °C, 24 h; daptomycin with 50 µg/mL Ca2+; mean of two independent experiments. A general note: In broth dilution the organism is exposed to a series of concentrations in liquid medium.
Assay [4] concerns vancomycin‐resistant E. faecium clinical isolates with reduced susceptibility to daptomycin (n = 26).

Converted amounts (≈) assume the structure as drawn. Where two headings read alike, the source gives them in different places.

This is an account of results in paper PMC12171682, “Saarvienin A—A Novel Glycopeptide with Potent Activity against Drug‐Resistant Bacteria” (Angewandte Chemie (International Ed. in English), 2025).

With `O=C(O)c1cn(C2CC2)c2cc(N3CCNCC3)c(F)cc2c1=O` [Ciprofloxacin], the MIC in assay [1] stood at 2 mg/L (≈ 6.04 µM).

As for `CNC(C)C1CCC(N)C(OC2C(N)CC(N)C(OC3OCC(C)(O)C(NC)C3O)C2O)O1` (stereo not shown) [Gentamicin], the MIC was 8 mg/L (≈ 16.8 µM) in assay [1]; more than 64 mg/L in assay [2] (read-out: MIC, Enterococcus faecium isolate 1); more than 64 mg/L in assay [2] (read-out: MIC, Enterococcus faecium isolate 2); 64 mg/L (≈ 134 µM) in assay [2] (read-out: MIC, Enterococcus faecium isolate 3); more than 64 mg/L in assay [2] (read-out: MIC, Enterococcus faecium isolate 4); more than 64 mg/L in assay [2] (read-out: MIC, Enterococcus faecium isolate 5). In addition, the MIC was more than 64 mg/L in assay [2] (read-out: MIC, Enterococcus faecium isolate 6); more than 64 mg/L in assay [2] (read-out: MIC, Enterococcus faecium isolate 7); more than 64 mg/L in assay [2] (read-out: MIC, Enterococcus faecium isolate 8); more than 64 mg/L in assay [2] (read-out: MIC, Enterococcus faecium isolate 9); more than 64 mg/L in assay [2] (read-out: MIC, Enterococcus faecium isolate 10); more than 64 mg/L in assay [2] (read-out: MIC, Enterococcus faecium isolate 11). Moreover, the MIC was more than 64 mg/L in assay [2] (read-out: MIC, Enterococcus faecium isolate 12); more than 64 mg/L in assay [2] (read-out: MIC, Enterococcus faecium isolate 13); more than 64 mg/L in assay [2] (read-out: MIC, Enterococcus faecium isolate 14); more than 64 mg/L in assay [2] (read-out: MIC, Enterococcus faecium isolate 15); more than 64 mg/L in assay [2] (read-out: MIC, Enterococcus faecium isolate 16); more than 64 mg/L in assay [2] (read-out: MIC, Enterococcus faecium isolate 17). Besides, the MIC in assay [2] (read-out: MIC, Enterococcus faecium isolate 18) is more than 64 mg/L; in assay [2] (read-out: MIC, Enterococcus faecium isolate 19), more than 64 mg/L; in assay [2] (read-out: MIC, Enterococcus faecium isolate 20), more than 64 mg/L; in assay [2] (read-out: MIC, Enterococcus faecium isolate 21), more than 64 mg/L; in assay [2] (read-out: MIC, Enterococcus faecium isolate 22) it was more than 64 mg/L; in assay [2] (read-out: MIC, Enterococcus faecium isolate 23) it was more than 64 mg/L. The MIC was more than 64 mg/L in assay [2] (read-out: MIC, Enterococcus faecium isolate 24); more than 64 mg/L in assay [2] (read-out: MIC, Enterococcus faecium isolate 25); more than 64 mg/L in assay [2] (read-out: MIC, Enterococcus faecium isolate 26). The MIC50 in assay [2] (VRE) is more than 64 mg/L. This molecule registered an MIC90 in assay [2] (VRE) of more than 64 mg/L.

Consider `CCCCCCCCCC(=O)N[C@@H](Cc1c[nH]c2ccccc12)C(=O)N[C@H](CC(N)=O)C(=O)N[C@@H](CC(=O)O)C(=O)N[C@@H]1C(=O)NCC(=O)N[C@@H](CCCN)C(=O)N[C@@H](CC(=O)O)C(=O)N[C@H](C)C(=O)N[C@@H](CC(=O)O)C(=O)NCC(=O)N[C@H](CO)C(=O)N[C@@H]([C@H](C)CC(=O)O)C(=O)N[C@@H](CC(=O)c2ccccc2N)C(=O)O[C@@H]1C` [Daptomycin, daptomycin], for which the “MIC, E. faecalis ATCC29212” value in assay [3] was 4 mg/L (≈ 2.47 µM). Further, in assay [4] (24 h), the MIC50 was determined as 8 mg/L (≈ 4.94 µM); the MIC90 was 8 mg/L (≈ 4.94 µM); the “MIC Range” value fell in the range of 8 to 16 mg/L; the “MIC, Enterococcus faecium isolate 1” value amounted to 8 mg/L (≈ 4.94 µM). In assay [4] (24 h), the “MIC, Enterococcus faecium isolate 2” value turned out to be 8 mg/L (≈ 4.94 µM); the “MIC, Enterococcus faecium isolate 3” value was 8 mg/L (≈ 4.94 µM); the “MIC, Enterococcus faecium isolate 4” value stood at 8 mg/L (≈ 4.94 µM); the “MIC, Enterococcus faecium isolate 5” value is 8 mg/L (≈ 4.94 µM). Moreover, in assay [4] (24 h), the “MIC, Enterococcus faecium isolate 6” value was 8 mg/L (≈ 4.94 µM); the “MIC, Enterococcus faecium isolate 7” value was 8 mg/L (≈ 4.94 µM); the “MIC, Enterococcus faecium isolate 8” value was found to be 8 mg/L (≈ 4.94 µM); the “MIC, Enterococcus faecium isolate 9” value was 8 mg/L (≈ 4.94 µM). In assay [4] (24 h), the “MIC, Enterococcus faecium isolate 10” value stood at 8 mg/L (≈ 4.94 µM); the “MIC, Enterococcus faecium isolate 11” value was 8 mg/L (≈ 4.94 µM); the “MIC, Enterococcus faecium isolate 12” value was 8 mg/L (≈ 4.94 µM); the “MIC, Enterococcus faecium isolate 13” value turned out to be 8 mg/L (≈ 4.94 µM). For the same molecule, in assay [4] (24 h), the “MIC, Enterococcus faecium isolate 14” value was 8 mg/L (≈ 4.94 µM); the “MIC, Enterococcus faecium isolate 15” value was found to be 8 mg/L (≈ 4.94 µM); the “MIC, Enterococcus faecium isolate 16” value is 8 mg/L (≈ 4.94 µM); the “MIC, Enterococcus faecium isolate 17” value came out at 8 mg/L (≈ 4.94 µM). In assay [4] (24 h), the “MIC, Enterococcus faecium isolate 18” value was determined as 8 mg/L (≈ 4.94 µM); the “MIC, Enterococcus faecium isolate 19” value came to 8 mg/L (≈ 4.94 µM); the “MIC, Enterococcus faecium isolate 20” value came to 8 mg/L (≈ 4.94 µM); the “MIC, Enterococcus faecium isolate 21” value stood at 8 mg/L (≈ 4.94 µM). In addition, in assay [4] (24 h), the “MIC, Enterococcus faecium isolate 22” value was found to be 8 mg/L (≈ 4.94 µM); the “MIC, Enterococcus faecium isolate 23” value worked out at 8 mg/L (≈ 4.94 µM); the “MIC, Enterococcus faecium isolate 24” value was found to be 16 mg/L (≈ 9.87 µM); the “MIC, Enterococcus faecium isolate 25” value was 16 mg/L (≈ 9.87 µM). Further, the “MIC, Enterococcus faecium isolate 26” value in assay [4] (24 h) was 8 mg/L (≈ 4.94 µM).

For teicoplanin, in assay [3], the “MIC, E. faecalis ATCC29212” value was 0.5 mg/L. Further, the MIC50 in assay [4] (26 VRE E. faecium clinical isolates, broth microdilution, MHB II, daptomycin with 50 µg/mL Ca2+, mean of two independent experiments) is 64 mg/L. For the same molecule, the “MIC, Enterococcus faecium isolate 1” value in assay [4] (clinical isolate 1, broth microdilution, MHB II, 37 °C, 24 h, daptomycin with 50 µg/mL Ca2+, mean of two independent experiments) was found to be 64 mg/L. Moreover, the “MIC, Enterococcus faecium isolate 2” value in assay [4] (clinical isolate 2, broth microdilution, MHB II, 37 °C, 24 h, daptomycin with 50 µg/mL Ca2+, mean of two independent experiments) worked out at 32 mg/L. Moreover, the “MIC, Enterococcus faecium isolate 3” value in assay [4] (clinical isolate 3, broth microdilution, MHB II, 37 °C, 24 h, daptomycin with 50 µg/mL Ca2+, mean of two independent experiments) worked out at 2 mg/L. For the same molecule, the “MIC, Enterococcus faecium isolate 4” value in assay [4] (clinical isolate 4, broth microdilution, MHB II, 37 °C, 24 h, daptomycin with 50 µg/mL Ca2+, mean of two independent experiments) was determined as 2 mg/L. Besides, the “MIC, Enterococcus faecium isolate 5” value in assay [4] (clinical isolate 5, broth microdilution, MHB II, 37 °C, 24 h, daptomycin with 50 µg/mL Ca2+, mean of two independent experiments) is more than 64 mg/L. Moreover, in assay [4] (clinical isolate 6, broth microdilution, MHB II, 37 °C, 24 h, daptomycin with 50 µg/mL Ca2+, mean of two independent experiments), the “MIC, Enterococcus faecium isolate 6” value amounted to 64 mg/L. For the same molecule, in assay [4] (clinical isolate 7, broth microdilution, MHB II, 37 °C, 24 h, daptomycin with 50 µg/mL Ca2+, mean of two independent experiments), the “MIC, Enterococcus faecium isolate 7” value is 32 mg/L. For the same molecule, in assay [4] (clinical isolate 8, broth microdilution, MHB II, 37 °C, 24 h, daptomycin with 50 µg/mL Ca2+, mean of two independent experiments), the “MIC, Enterococcus faecium isolate 8” value stood at 64 mg/L. In assay [4] (clinical isolate 9, broth microdilution, MHB II, 37 °C, 24 h, daptomycin with 50 µg/mL Ca2+, mean of two independent experiments), the “MIC, Enterococcus faecium isolate 9” value is more than 64 mg/L. Besides, the “MIC, Enterococcus faecium isolate 10” value in assay [4] (clinical isolate 10, broth microdilution, MHB II, 37 °C, 24 h, daptomycin with 50 µg/mL Ca2+, mean of two independent experiments) is more than 64 mg/L. Also, in assay [4] (clinical isolate 11, broth microdilution, MHB II, 37 °C, 24 h, daptomycin with 50 µg/mL Ca2+, mean of two independent experiments), the “MIC, Enterococcus faecium isolate 11” value was determined as 32 mg/L. The “MIC, Enterococcus faecium isolate 12” value in assay [4] (clinical isolate 12, broth microdilution, MHB II, 37 °C, 24 h, daptomycin with 50 µg/mL Ca2+, mean of two independent experiments) was determined as 64 mg/L. For the same molecule, in assay [4] (clinical isolate 13, broth microdilution, MHB II, 37 °C, 24 h, daptomycin with 50 µg/mL Ca2+, mean of two independent experiments), the “MIC, Enterococcus faecium isolate 13” value turned out to be 32 mg/L. In assay [4] (clinical isolate 14, broth microdilution, MHB II, 37 °C, 24 h, daptomycin with 50 µg/mL Ca2+, mean of two independent experiments), the “MIC, Enterococcus faecium isolate 14” value turned out to be 32 mg/L. The “MIC, Enterococcus faecium isolate 15” value in assay [4] (clinical isolate 15, broth microdilution, MHB II, 37 °C, 24 h, daptomycin with 50 µg/mL Ca2+, mean of two independent experiments) is 64 mg/L. Besides, the “MIC, Enterococcus faecium isolate 16” value in assay [4] (clinical isolate 16, broth microdilution, MHB II, 37 °C, 24 h, daptomycin with 50 µg/mL Ca2+, mean of two independent experiments) came to 32 mg/L. Further, the “MIC, Enterococcus faecium isolate 17” value in assay [4] (clinical isolate 17, broth microdilution, MHB II, 37 °C, 24 h, daptomycin with 50 µg/mL Ca2+, mean of two independent experiments) turned out to be 64 mg/L. In addition, the “MIC, Enterococcus faecium isolate 18” value in assay [4] (clinical isolate 18, broth microdilution, MHB II, 37 °C, 24 h, daptomycin with 50 µg/mL Ca2+, mean of two independent experiments) came out at 32 mg/L. In addition, the “MIC, Enterococcus faecium isolate 19” value in assay [4] (clinical isolate 19, broth microdilution, MHB II, 37 °C, 24 h, daptomycin with 50 µg/mL Ca2+, mean of two independent experiments) came to 64 mg/L. Further, the “MIC, Enterococcus faecium isolate 20” value in assay [4] (clinical isolate 20, broth microdilution, MHB II, 37 °C, 24 h, daptomycin with 50 µg/mL Ca2+, mean of two independent experiments) is 64 mg/L. Further, the “MIC, Enterococcus faecium isolate 21” value in assay [4] (clinical isolate 21, broth microdilution, MHB II, 37 °C, 24 h, daptomycin with 50 µg/mL Ca2+, mean of two independent experiments) is more than 64 mg/L. Besides, in assay [4] (clinical isolate 22, broth microdilution, MHB II, 37 °C, 24 h, daptomycin with 50 µg/mL Ca2+, mean of two independent experiments), the “MIC, Enterococcus faecium isolate 22” value worked out at 64 mg/L. Also, the “MIC, Enterococcus faecium isolate 23” value in assay [4] (clinical isolate 23, broth microdilution, MHB II, 37 °C, 24 h, daptomycin with 50 µg/mL Ca2+, mean of two independent experiments) is more than 64 mg/L. Besides, the “MIC, Enterococcus faecium isolate 24” value in assay [4] (clinical isolate 24, broth microdilution, MHB II, 37 °C, 24 h, daptomycin with 50 µg/mL Ca2+, mean of two independent experiments) was more than 64 mg/L. In assay [4] (clinical isolate 25, broth microdilution, MHB II, 37 °C, 24 h, daptomycin with 50 µg/mL Ca2+, mean of two independent experiments), the “MIC, Enterococcus faecium isolate 25” value is more than 64 mg/L. Besides, in assay [4] (clinical isolate 26, broth microdilution, MHB II, 37 °C, 24 h, daptomycin with 50 µg/mL Ca2+, mean of two independent experiments), the “MIC, Enterococcus faecium isolate 26” value was more than 64 mg/L.
